The species named for test [1] is Homo sapiens. Description: Inhibition of human gel filtered platelet aggregation stimulated by ADP ([…]). The test is classed as functional, organism-based.
The target of test [2] is Integrin alpha-IIb/beta-3 (Homo sapiens) (UniProt P05106+P08514). Description: Affinity for purified alpha IIb beta-3 integrin. The class given is protein-complex assay.

pIC50: −log10 of the molar value.

Turning to `O=C(O)CCNC(=O)c1ccc2c(c1)C(=O)N(CCC1CCNCC1)C2`, the pIC50 (usually the negative decadic logarithm of the IC50, by convention in mol/L) in test [1] is 7.57. In test [2], this molecule came in with an ED50 of 12 nM.
The corresponding values for `CCCCS(=O)(=O)N[C@@H](Cc1ccc(OCCCCC2CCNCC2)cc1)C(=O)O` [TIROFIBAN] are 7.74 and 0.9 nM.
The corresponding values for `O=C(O)C1=C/C(=N\C(S)=N\CCS(=O)(=O)N[C@@H](CNC(=O)c2ccc3c(c2)C(=O)N(CCC2CCNCC2)C3)C(=O)O)C=CC1=C1c2ccc(O)cc2Oc2cc(O)ccc21` are 7.51 and 1.9 nM.
The like results for `CN(C)c1cccc2c(S(=O)(=O)N[C@@H](CNC(=O)c3ccc4c(c3)C(=O)N(CCC3CCNCC3)C4)C(=O)O)cccc12` were, in that order, 7.92 and 2.1 nM.
